# Assay results reported in patent US20230129364A1, “PYRROLIDINE DERIVATIVE, AND PHARMACEUTICAL COMPOSITION FOR PREVENTING OR TREATING BETA-AMYLOID OR TAU PROTEIN-ASSOCIATED DISEASES CONTAINING SAME” (YONSEI UNIVERSITY, UNIVERSITY - INDUSTRY FOUNDATION (UIF), priority 2019, published 2023).
# Legend:
# [1] = target: T1, Tau protein (wild-type K18) (Homo sapiens, UniProt P10636); experiment: Tau protein aggregation inhibition test (thioflavin T assay); assay type: biochemical; details: heparin/DTT-induced aggregation, 37° C. 5 days, ThT fluorescence vs tau-only control = 100%
# T1 construct: Tau protein (wild-type K18)
# Description: (§1) Tau protein (wild-type K18) was dissolved in phosphate-buffered saline (PBS, pH 7.4) at a concentration of 1 mg/mL to prepare a tau protein solution. In order to induce aggregation of tau proteins, 0.1 mg/mL of heparin and 100 μM dithiothreitol (DTT) were added to 1 mg/mL of the tau protein solution, followed by incubation at 37° C. for 5 days. At this time, the result was mixed with each test compound (50, 500 μM) such that the final concentration reached 0.5 mg/mL, followed by further incubation.
# The inhibitory effect of each compound against tau aggregation was measured based on the intensity of fluorescence by thioflavin T (ThT) assay (see Example 2). More specifically, 25 μL of the reaction solution was charged in each well of a 96-well plate for fluorescence analysis, and 75 μL of the prepared thioflavin-T solution was then charged in each well. The reaction was allowed to proceed at room temperature in a dark laboratory for 5 minutes, and then fluorescence values were measured at an excitation wavelength of 450 nm and an emission wavelength of 485 nm using a multi-mode microplate reader.
# The ratio of the fluorescence value measured in the group obtained by treating with each test compound to 100% of the fluorescence value of the group (control group) obtained by treating only with tau proteins and inducing aggregation for 5 days is set forth in Table 5 below: […]
# [2] = target: T2, aggregated tau protein (wild-type K18) (Homo sapiens, UniProt P10636); experiment: Tau protein aggregate degradation test (thioflavin T assay); assay type: biochemical; details: pre-aggregated tau, further 5 days at 37° C., ThT fluorescence vs control = 100%
# T2 construct: Tau protein (wild-type K18)
# Description: as §1, with “solution.” for “solution. In order to induce aggregation of tau proteins,”, “days to induce tau protein aggregation. The aggregated tau protein” for “days. At this time, the result”, “in an amount of 50 or” for “(50,”, “μM” for “μM)”, “incubation at 37° C. for 5 days to induce reaction.” for “incubation.”
# The degradation effect of each compound on the tau aggregates was measured by thioflavin T (ThT) assay (see Example 2). More specifically, 25 μL of the reaction solution was charged in each well of a 96-well plate for fluorescence analysis and 75 μL of the prepared thioflavin-T solution was charged in each well. The reaction was allowed to proceed at room temperature in a dark laboratory for 5 minutes and then fluorescence values were measured at an excitation wavelength of 450 nm and an emission wavelength of 485 nm using a multi-mode microplate reader.
# The ratio of the fluorescence value measured in the group obtained by treating with each test compound to 100% of the fluorescence value of the group (control group) obtained by treating only with tau proteins and inducing aggregation for 5 days is set forth in Table 6 below: […]
# T1 sequence (P10636 561-685 limits assumed): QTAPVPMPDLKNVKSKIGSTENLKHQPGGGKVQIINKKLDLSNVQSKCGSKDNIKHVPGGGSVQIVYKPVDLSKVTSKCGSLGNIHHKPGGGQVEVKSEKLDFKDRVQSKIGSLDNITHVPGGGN
# T2 sequence (P10636 561-685 limits assumed): as above
Structure (SMILES),"Tau aggregation remaining (ThT fluorescence, % of tau-only control) ([1]; 50 uM test compound)","Tau aggregation remaining (ThT fluorescence, % of tau-only control) ([1]; 500 uM test compound)",ThT fluorescence remaining (% of control) ([2]; 50 uM test compound),ThT fluorescence remaining (% of control) ([2]; 500 uM test compound)
"O=C1NC(=O)/C(=C/c2c[nH]c3ccccc23)S1 [DN204285, (Z)-5-((1H-indol-3-yl)methylene)thiazolidine-2,4-dione]",53.14 % of control,42.56 % of control,64.04 % of control,78.38 % of control
"O=C1NC(=O)/C(=C/c2ccoc2)S1 [DN204287, (Z)-5-(furan-3-ylmethylene)thiazolidine-2,4-dione]",69.16 % of control,59.86 % of control,61.17 % of control,71.42 % of control
"O=C1NC(=O)/C(=C/c2ccsc2)S1 [DN204288, (Z)-5-(thiophen-3-ylmethylene) thiazolidine-2,4-dione]",74.09 % of control,80.79 % of control,,
"O=C1NC(=O)/C(=C/c2c[nH]c3cnccc23)S1 [DN204290, (Z)-5-((1H-pyrrolo[2,3-c]pyridin-3-yl)methylene)thiazolidine-2,4-dione]",63.13 % of control,42.61 % of control,54.41 % of control,40.38 % of control
"O=C1NC(=O)C(Cc2csc3ccccc23)S1 (centres unmarked) [DN204291, 5-(benzo[b]thiophen-3-ylmethyl)thiazolidine-2,4-dione]",65.99 % of control,,,
"O=C1NC(=O)C(Cc2ccoc2)S1 (centres unmarked) [DN204292, 5-(furan-3-ylmethyl)thiazolidine-2,4-dione]",63.18 % of control,60.16 % of control,82.23 % of control,77.46 % of control
"O=C1NC(=O)C(Cc2ccsc2)S1 (centres unmarked) [DN204293, 5-(thiophen-3-ylmethyl)thiazolidine-2,4-dione]",55.97 % of control,58.22 % of control,,95.86 % of control
"O=C1NC(=O)C(Cc2c[nH]c3ccccc23)S1 (centres unmarked) [DN204295, 5-((1H-indol-3-yl)methyl)thiazolidine-2,4-dione]",74.98 % of control,59.6 % of control,89.98 % of control,
"O=C1NC(=S)SC1Cc1csc2ccccc12 (centres unmarked) [DN204300, 5-(benzo[b]thiophen-3-ylmethyl)-2-thioxothiazolidin-4-one]",92.633 % of control,,,
"O=C1NC(=S)SC1Cc1c[nH]c2ccccc12 (centres unmarked) [DN204301, 5-((1H-indol-3-yl)methyl)-2-thioxothiazolidin-4-one]",90.337 % of control,39.019 % of control,80.31 % of control,45.47 % of control
"O=C1NC(=S)SC1Cc1cnc2ccccc2c1 (centres unmarked) [DN204302, 5-(quinolin-3-ylmethyl)-2-thioxothiazolidin-4-one]",67.16 % of control,47.38 % of control,,
"O=C1NC(=S)SC1Cc1ccoc1 (centres unmarked) [DN204305, 5-(furon-3-ylmethyl)-2-thioxothiazolidin-4-one]",83.45 % of control,56.13 % of control,61.22 % of control,56.43 % of control
"O=C1NC(=S)SC1Cc1ccsc1 (centres unmarked) [DN204306, 5-(thiophen-3-ylmethyl)-2-thioxothiazolidin-4-one]",66.31 % of control,52.16 % of control,66.03 % of control,73.34 % of control
"O=C1NC(=O)C(Cc2cc[nH]c2)S1 (centres unmarked) [DN204307, 5-((1H-pyrrol-3-yl)methyl)thiazolidine-2,4-dione]",,57.26 % of control,,
"CN1C(=O)N/C(=C\c2cccc3ccoc23)C1=O [DN204670, (Z)-5-(benzofuran-7-ylmethylene)-3-methylimidazolidine-2,4-dione]",87.73 % of control,,,
"CN1C(=O)N/C(=C\c2csc3ccccc23)C1=O [DN204671, (Z)-5-(benzo[b]thiophen-3-ylmethylene)-3-methylimidazolidine-2,4-dione]",88.61 % of control,77.02 % of control,,
"CCN1C(=O)/C(=C/c2csc3ccccc23)NC1=S [DN204810, (Z)-5-(benzo[b]thiophen-3-ylmethylene)-3-ethyl-2-thioxoimidazolidin-4-one]",87.61 % of control,65.66 % of control,,
"CCN1C(=O)/C(=C/c2cccs2)NC1=S [DN204815, (Z)-3-ethyl-5-(thiophen-2-ylmethylene)-2-thioxoimidazolidin-4-one]",,70.7 % of control,39.88 % of control,36.97 % of control
"CCN1C(=O)/C(=C/c2c[nH]c3cnccc23)SC1=S [DN205779, (Z)-5-((1H-pyrrolo[2,3-c]pyridin-3-yl)methylene)-3-ethyl-2-thioxothiazolidin-4-one]",83.56 % of control,62.51 % of control,,
"CCN1C(=O)/C(=C/c2csc3ccccc23)SC1=S [DN205782, (Z)-5-(benzo[b]thiophen-3-ylmethylene)-3-ethyl-2-thioxothiazolidin-4-one]",97.55 % of control,75.35 % of control,,
CCN1C(=O)/C(=C/c2cccc3ccccc23)SC1=S [DN205783],81.81 % of control,69.79 % of control,,
"CCN1C(=O)N/C(=C\c2c[nH]c3ccncc23)C1=O [DN205822, (Z)-5-((1H-pyrrolo[3,2-c]pyridin-3-yl)methylene)-3-ethylimidazolidine-2,4-dione]",83.97 % of control,,,
